Results on 34 molecules are retold here after patent publication US20240166635A1, “AMINOHETEROARYL KINASE INHIBITORS” (Anrui Biomedical Technology (Guangzhou) Co.,Ltd., priority 2020, published 2024).

What all share (assay type): biochemical
The target of one assay is CDK7/CyclinH/MAT1 (Homo sapiens (Human), UniProt P50613). The assay can be described thus: CDK7/CyclinH/MAT1 kinase inhibitory activity (Caliper mobility shift).
A further assay has as its target CDK6/CyclinD1 (Homo sapiens (Human), UniProt Q00534). The assay is described as follows: CDK6/CyclinD1 kinase inhibitory activity (Caliper mobility shift). Conditions: read-out: CDK6/Cyclin D1 IC50.
The next assay addresses CDK1/CyclinB (Homo sapiens (Human), UniProt P06493). The assay can be described thus: CDK1/CyclinB kinase inhibitory activity (Caliper mobility shift). The note with it: read-out: CDK1/Cyclin B1 IC50.
In another assay the target is CDK2/CyclinE1 (Homo sapiens (Human), UniProt P24941). The assay can be described thus: CDK2/CyclinE1 kinase inhibitory activity (Caliper mobility shift). Conditions: read-out: CDK2/Cyclin El IC50.
A further assay deals with CDK9/CyclinT1 (Homo sapiens (Human), UniProt P50750). The assay can be described thus: CDK9/CyclinT1 kinase inhibitory activity (Caliper mobility shift). The note with it: read-out: CDK9/Cyclin T1 IC50.
Sequence of CDK9/CyclinT1 (P50750 whole entry): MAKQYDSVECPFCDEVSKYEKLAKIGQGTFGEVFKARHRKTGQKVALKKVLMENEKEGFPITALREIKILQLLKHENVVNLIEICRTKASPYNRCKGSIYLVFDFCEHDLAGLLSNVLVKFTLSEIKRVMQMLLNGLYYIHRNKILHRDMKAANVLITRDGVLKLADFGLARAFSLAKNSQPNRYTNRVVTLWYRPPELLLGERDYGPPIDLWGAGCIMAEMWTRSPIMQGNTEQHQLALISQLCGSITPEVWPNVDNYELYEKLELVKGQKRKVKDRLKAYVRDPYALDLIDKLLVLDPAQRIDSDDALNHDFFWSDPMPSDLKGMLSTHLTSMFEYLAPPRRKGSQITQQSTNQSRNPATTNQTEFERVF
Sequence of CDK9/CyclinT1 (O60563 whole entry partner): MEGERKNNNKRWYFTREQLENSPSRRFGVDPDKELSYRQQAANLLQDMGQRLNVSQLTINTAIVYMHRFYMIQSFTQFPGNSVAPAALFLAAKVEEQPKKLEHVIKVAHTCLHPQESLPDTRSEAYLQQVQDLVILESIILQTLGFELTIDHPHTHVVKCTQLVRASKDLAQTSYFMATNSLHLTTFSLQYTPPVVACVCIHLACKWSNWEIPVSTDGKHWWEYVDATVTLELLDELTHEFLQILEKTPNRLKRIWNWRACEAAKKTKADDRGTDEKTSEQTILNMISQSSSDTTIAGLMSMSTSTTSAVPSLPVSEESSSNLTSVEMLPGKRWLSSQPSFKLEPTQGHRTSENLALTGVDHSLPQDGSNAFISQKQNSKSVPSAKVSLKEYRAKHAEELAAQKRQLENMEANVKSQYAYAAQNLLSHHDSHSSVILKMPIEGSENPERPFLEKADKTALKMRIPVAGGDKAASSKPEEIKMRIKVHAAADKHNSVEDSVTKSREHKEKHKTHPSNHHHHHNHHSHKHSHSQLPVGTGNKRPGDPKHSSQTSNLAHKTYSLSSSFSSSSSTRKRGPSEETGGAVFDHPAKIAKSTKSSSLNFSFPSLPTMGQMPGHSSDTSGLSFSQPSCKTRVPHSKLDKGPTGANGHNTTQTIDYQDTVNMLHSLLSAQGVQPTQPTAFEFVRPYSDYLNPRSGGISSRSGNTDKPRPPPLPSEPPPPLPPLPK

Some results are limits rather than exact numbers.

Sequence of CDK6/CyclinD1 (Q00534 whole entry): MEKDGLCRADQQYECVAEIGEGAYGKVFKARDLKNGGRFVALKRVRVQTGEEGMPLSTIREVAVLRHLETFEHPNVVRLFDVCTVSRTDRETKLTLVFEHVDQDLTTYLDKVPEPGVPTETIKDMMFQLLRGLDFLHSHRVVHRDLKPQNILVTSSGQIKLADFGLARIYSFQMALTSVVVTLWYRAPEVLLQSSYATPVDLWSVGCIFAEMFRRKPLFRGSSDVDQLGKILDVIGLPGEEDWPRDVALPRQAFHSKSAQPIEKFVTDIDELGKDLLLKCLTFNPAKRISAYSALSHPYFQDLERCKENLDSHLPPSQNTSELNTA
Sequence of CDK6/CyclinD1 (P24385 whole entry partner): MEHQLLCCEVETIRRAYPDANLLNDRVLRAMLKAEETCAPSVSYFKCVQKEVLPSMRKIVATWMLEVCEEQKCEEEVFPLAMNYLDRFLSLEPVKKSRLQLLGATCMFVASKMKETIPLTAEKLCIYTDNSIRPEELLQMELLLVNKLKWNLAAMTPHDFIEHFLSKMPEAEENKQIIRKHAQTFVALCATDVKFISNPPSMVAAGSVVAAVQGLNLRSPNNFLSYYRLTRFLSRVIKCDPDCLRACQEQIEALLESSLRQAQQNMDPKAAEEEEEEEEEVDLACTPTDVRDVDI
Sequence of CDK1/CyclinB (P06493 whole entry): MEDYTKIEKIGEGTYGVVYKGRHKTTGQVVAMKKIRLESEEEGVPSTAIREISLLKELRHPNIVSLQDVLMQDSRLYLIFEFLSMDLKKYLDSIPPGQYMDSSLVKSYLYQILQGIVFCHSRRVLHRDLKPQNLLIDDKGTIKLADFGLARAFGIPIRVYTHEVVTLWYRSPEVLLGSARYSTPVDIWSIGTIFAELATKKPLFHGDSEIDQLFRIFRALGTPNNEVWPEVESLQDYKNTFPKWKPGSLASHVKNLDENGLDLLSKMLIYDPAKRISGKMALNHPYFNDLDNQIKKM
Sequence of CDK1/CyclinB (P14635 whole entry partner): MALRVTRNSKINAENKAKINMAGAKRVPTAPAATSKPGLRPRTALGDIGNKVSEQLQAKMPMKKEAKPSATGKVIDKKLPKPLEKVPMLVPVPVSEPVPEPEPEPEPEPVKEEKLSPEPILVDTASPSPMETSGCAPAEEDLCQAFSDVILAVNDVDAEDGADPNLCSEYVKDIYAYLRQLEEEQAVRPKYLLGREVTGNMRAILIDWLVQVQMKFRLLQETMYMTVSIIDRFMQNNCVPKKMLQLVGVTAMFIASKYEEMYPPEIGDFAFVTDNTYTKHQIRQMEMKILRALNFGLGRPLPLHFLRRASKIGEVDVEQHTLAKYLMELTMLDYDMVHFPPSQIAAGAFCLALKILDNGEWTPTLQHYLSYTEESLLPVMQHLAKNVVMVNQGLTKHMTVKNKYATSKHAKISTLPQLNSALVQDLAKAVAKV
Sequence of CDK7/CyclinH/MAT1 (P50613 whole entry): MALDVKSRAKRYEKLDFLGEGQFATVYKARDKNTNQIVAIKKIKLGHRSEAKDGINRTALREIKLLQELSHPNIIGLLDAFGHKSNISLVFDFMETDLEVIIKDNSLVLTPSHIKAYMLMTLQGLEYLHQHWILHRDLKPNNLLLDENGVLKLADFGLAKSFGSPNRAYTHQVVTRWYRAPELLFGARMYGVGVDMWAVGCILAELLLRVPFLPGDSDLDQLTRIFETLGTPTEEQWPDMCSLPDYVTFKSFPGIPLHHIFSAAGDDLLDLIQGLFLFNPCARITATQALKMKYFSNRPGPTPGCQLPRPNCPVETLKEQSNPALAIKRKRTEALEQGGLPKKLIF
Sequence of CDK7/CyclinH/MAT1 (P51946 whole entry partner): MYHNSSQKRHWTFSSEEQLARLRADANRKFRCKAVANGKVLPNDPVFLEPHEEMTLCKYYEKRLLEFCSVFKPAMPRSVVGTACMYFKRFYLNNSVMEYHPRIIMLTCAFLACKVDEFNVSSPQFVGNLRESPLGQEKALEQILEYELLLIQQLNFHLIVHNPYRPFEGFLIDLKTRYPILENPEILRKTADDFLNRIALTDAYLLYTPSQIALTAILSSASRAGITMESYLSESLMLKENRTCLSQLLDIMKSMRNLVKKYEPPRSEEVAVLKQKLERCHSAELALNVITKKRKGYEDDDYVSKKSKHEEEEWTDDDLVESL
Sequence of CDK7/CyclinH/MAT1 (P51948 whole entry partner): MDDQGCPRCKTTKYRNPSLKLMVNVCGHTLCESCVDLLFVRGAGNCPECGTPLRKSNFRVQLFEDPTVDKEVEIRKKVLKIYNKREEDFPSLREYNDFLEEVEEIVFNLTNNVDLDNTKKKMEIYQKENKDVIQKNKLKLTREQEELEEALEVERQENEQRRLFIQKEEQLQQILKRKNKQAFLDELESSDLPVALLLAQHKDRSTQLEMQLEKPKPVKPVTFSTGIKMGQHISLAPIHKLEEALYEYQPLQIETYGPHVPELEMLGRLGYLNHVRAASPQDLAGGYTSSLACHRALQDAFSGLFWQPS

Regarding `N#Cc1cnc(Nc2ccc(S(N)(=O)=O)cc2)nc1N1CCCC(c2ccccc2)C1` (single isomer, unassigned) [Example 85], the IC50 is 100 to 1000 nM on CDK7/CyclinH/MAT1; 100 to 1000 nM on CDK6/CyclinD1; 10 to 100 nM on CDK1/CyclinB; less than 10 nM on CDK2/CyclinE1; 100 to 1000 nM at CDK9/CyclinT1.
In the case of `[2H]C([2H])([2H])NS(=O)(=O)c1ccc(Nc2ncc(C(F)(F)F)c(OC3CCOCCC3O)n2)cc1` (single isomer, unassigned) [Example 102b, 4-((4-((5-hydroxyoxepan-4-yl)oxy)-5-(trifluoromethyl)pyrimidin-2-yl)amino)-N-(methyl-d3)benzenesulfonamide], the IC50 lay within 100 to 1000 nM on CDK7/CyclinH/MAT1, 100 to 1000 nM on CDK6/CyclinD1 and 10 to 100 nM at CDK1/CyclinB.
With `[2H]C([2H])([2H])NS(=O)(=O)c1ccc(Nc2ncc(C(F)(F)F)c(OC3CCOCCC3O)n2)cc1` (single isomer, unassigned) [Example 102c, 4-((4-((5-hydroxyoxepan-4-yl)oxy)-5-(trifluoromethyl)pyrimidin-2-yl)amino)-N-(methyl-d3)benzenesulfonamide], the IC50 on CDK7/CyclinH/MAT1 is not below 1000 nM; on CDK6/CyclinD1 it was 100 to 1000 nM; at CDK1/CyclinB it was 100 to 1000 nM.
Consider `[2H]C([2H])([2H])NS(=O)(=O)c1ccc(Nc2ncc(C(F)(F)F)c(OC3CCOCCC3O)n2)cc1` (single isomer, unassigned) [Example 102d, 4-((4-((5-hydroxyoxepan-4-yl)oxy)-5-(trifluoromethyl)pyrimidin-2-yl)amino)-N-(methyl-d3)benzenesulfonamide], for which the results for the IC50 at CDK7/CyclinH/MAT1, at CDK6/CyclinD1 and at CDK1/CyclinB were not below 1000 nM, 100 to 1000 nM and 100 to 1000 nM, respectively.
Consider `CNS(=O)(=O)c1ccc(Nc2ncc(C(F)(F)F)c(O[C@H]3CCCOC[C@H]3O)n2)cc1` (single isomer, unassigned) [Example 103b, cis-4-((4-((3-hydroxyoxepan-4-yl)oxy)-5-(trifluoromethyl)pyrimidin-2-yl)amino)-N-(methyl-d3)benzenesulfonamide], for which the values for the IC50 at CDK6/CyclinD1 and at CDK2/CyclinE1 were 100 to 1000 nM and less than 10 nM, respectively.
Regarding `NS(=O)(=O)c1ccc(Nc2ncc(C(F)(F)F)c(OC3COCCC3O)n2)cc1` (single isomer, unassigned) [Example 115a], the IC50 is 10 to 100 nM on CDK7/CyclinH/MAT1, 10 to 100 nM on CDK1/CyclinB and less than 10 nM at CDK2/CyclinE1.
With `NS(=O)(=O)c1ccc(Nc2ncc(C(F)(F)F)c(OC3CCCCCC3O)n2)cc1` (single isomer, unassigned) [Example 118a], the IC50 was 100 to 1000 nM on CDK7/CyclinH/MAT1, less than 10 nM on CDK1/CyclinB, less than 10 nM at CDK2/CyclinE1 and less than 10 nM at CDK9/CyclinT1.
Turning to `CS(=O)(=O)N1CCC(Nc2ncc(C(F)(F)F)c(OC3CCCCCC3O)n2)CC1` (single isomer, unassigned) [Example 121a], the IC50 on CDK7/CyclinH/MAT1 is 10 to 100 nM; on CDK1/CyclinB it was 10 to 100 nM; on CDK2/CyclinE1 it was less than 10 nM; on CDK9/CyclinT1, 100 to 1000 nM.
As for `NS(=O)(=O)N1CCC(Nc2ncc(C(F)(F)F)c(OC3CCCCCC3O)n2)CC1` (single isomer, unassigned) [Example 122b], the IC50 at CDK7/CyclinH/MAT1 is 10 to 100 nM; on CDK1/CyclinB it was 10 to 100 nM; at CDK2/CyclinE1, less than 10 nM; at CDK9/CyclinT1, 10 to 100 nM.
`Cc1cnc(Nc2ccc(S(=O)(=O)NC(C)C)cc2)nc1OC1CCCC1O` (single isomer, unassigned) [Example 147b]: the IC50 at CDK1/CyclinB fell in the range of 100 to 1000 nM; at CDK2/CyclinE1 it was 10 to 100 nM; at CDK9/CyclinT1, 100 to 1000 nM.
In the case of `[2H]C([2H])([2H])NS(=O)(=O)c1ccc(Nc2ncc(C)c(OC3CCCC3O)n2)cc1` (single isomer, unassigned) [Example 148b], the values for the IC50 on CDK1/CyclinB, at CDK2/CyclinE1 and at CDK9/CyclinT1 were 100 to 1000 nM, 10 to 100 nM and not below 1000 nM, respectively.
In the case of `[2H]C([2H])([2H])NS(=O)(=O)c1ccc(Nc2ncc(CC)c(OC3CCCC3O)n2)cc1` (single isomer, unassigned) [Example 149b], the values for the IC50 on CDK1/CyclinB, at CDK2/CyclinE1 and at CDK9/CyclinT1 were 100 to 1000 nM, 10 to 100 nM and 100 to 1000 nM, respectively.
For the molecule `[2H]C([2H])([2H])NS(=O)(=O)c1ccc(Nc2ncc(CC)c(OC3CCOCC3O)n2)cc1` (single isomer, unassigned) [Example 151b], the IC50 at CDK1/CyclinB is not below 1000 nM; at CDK2/CyclinE1 it was 10 to 100 nM; on CDK9/CyclinT1, not below 1000 nM.
Turning to `[2H]C([2H])([2H])NS(=O)(=O)c1ccc(Nc2ncc(CC)c(OC3CCOCC3(C)O)n2)cc1` (single isomer, unassigned) [Example 152a], the IC50 was less than 10 nM at CDK1/CyclinB, less than 10 nM at CDK2/CyclinE1 and 10 to 100 nM at CDK9/CyclinT1.
Take `[2H]C([2H])([2H])NS(=O)(=O)c1ccc(Nc2ncc(CC)c(OC3CCOCC3(C)O)n2)cc1` (single isomer, unassigned) [Example 152b]: the results for the IC50 at CDK1/CyclinB, at CDK2/CyclinE1 and at CDK9/CyclinT1 were not below 1000 nM, 10 to 100 nM and not below 1000 nM, respectively.
As for `[2H]C([2H])([2H])NS(=O)(=O)c1ccc(Nc2ncc(CC)c(OC3COCCC3(C)O)n2)cc1` (single isomer, unassigned) [Example 153b], the figures for the IC50 at CDK1/CyclinB, on CDK2/CyclinE1 and at CDK9/CyclinT1 were not below 1000 nM, 10 to 100 nM and not below 1000 nM, respectively.
In the case of `CC1(O)CCCC1Oc1nc(Nc2ccc(S(N)(=O)=O)cc2)ncc1C1CC1` (single isomer, unassigned) [Example 154b], the IC50 on CDK1/CyclinB is 10 to 100 nM; on CDK2/CyclinE1, less than 10 nM; on CDK9/CyclinT1, 100 to 1000 nM.
In the case of `C=Cc1cnc(Nc2ccc(S(N)(=O)=O)cc2)nc1OC1CCCC1O` (single isomer, unassigned) [Example 155b], the IC50 on CDK1/CyclinB was 100 to 1000 nM; at CDK2/CyclinE1 it was less than 10 nM; on CDK9/CyclinT1, 100 to 1000 nM.
`N#Cc1cnc(Nc2ccc(S(N)(=O)=O)cc2)nc1OCC1CCCC1` [Example 1, 4-((5-cyano-4-(cyclopentylmethoxy)pyrimidin-2-yl)amino)benzenesulfonamide]: the IC50 on CDK7/CyclinH/MAT1 was not below 1000 nM; on CDK6/CyclinD1 it was not below 1000 nM; on CDK1/CyclinB, 10 to 100 nM; on CDK2/CyclinE1, 10 to 100 nM; at CDK9/CyclinT1 it was 10 to 100 nM.
With `CC1CCCC1Oc1nc(Nc2ccc(S(N)(=O)=O)cc2)ncc1C#N` (stereo not drawn) [Example 11], the IC50 at CDK1/CyclinB was less than 10 nM; at CDK2/CyclinE1, less than 10 nM; at CDK9/CyclinT1 it was 10 to 100 nM.
On to `CC1(COc2nc(Nc3ccc(S(N)(=O)=O)cc3)ncc2C#N)CCCCC1` [Example 14], for which the IC50 was not below 1000 nM on CDK7/CyclinH/MAT1; not below 1000 nM on CDK6/CyclinD1; 100 to 1000 nM on CDK1/CyclinB; 10 to 100 nM on CDK2/CyclinE1; 100 to 1000 nM on CDK9/CyclinT1.
As to `N#Cc1cnc(Nc2ccc(S(N)(=O)=O)cc2)nc1OCC1(CO)CCCC1` [Example 15], the IC50 on CDK7/CyclinH/MAT1 is 100 to 1000 nM; at CDK6/CyclinD1, 100 to 1000 nM; at CDK1/CyclinB, 10 to 100 nM; at CDK2/CyclinE1 it was less than 10 nM; on CDK9/CyclinT1 it was 100 to 1000 nM.
Consider `N#Cc1cnc(Nc2ccc(S(N)(=O)=O)cc2)nc1OCC1(CO)CCCCC1` [Example 17], for which the IC50 at CDK7/CyclinH/MAT1 is not below 1000 nM; at CDK6/CyclinD1, 100 to 1000 nM; at CDK1/CyclinB, 10 to 100 nM; at CDK2/CyclinE1, less than 10 nM; at CDK9/CyclinT1 it was 100 to 1000 nM.
For the molecule `CC(C)NS(=O)(=O)c1ccc(Nc2ncc(C#N)c(OC3CCCC3)n2)cc1` [Example 28], the values for the IC50 on CDK1/CyclinB, on CDK2/CyclinE1 and on CDK9/CyclinT1 were 10 to 100 nM, less than 10 nM and 100 to 1000 nM, respectively.
Turning to `N#Cc1cnc(Nc2ccc(S(=O)(=O)NC3COC3)cc2)nc1N1CCCCC1` [Example 66, 4-((5-cyano-4-(piperidin-1-yl)pyrimidin-2-yl)amino)-N-(oxetan-3-yl)benzenesulfonamide], the IC50 at CDK7/CyclinH/MAT1 was not below 1000 nM; on CDK6/CyclinD1 it was 100 to 1000 nM; at CDK1/CyclinB it was 10 to 100 nM; on CDK2/CyclinE1 it was less than 10 nM; at CDK9/CyclinT1, 100 to 1000 nM.
As to `N#Cc1cnc(Nc2ccc(S(N)(=O)=O)cc2)nc1N1CCCC1` [Example 67], the IC50 was not below 1000 nM at CDK7/CyclinH/MAT1, 100 to 1000 nM at CDK1/CyclinB, 10 to 100 nM on CDK2/CyclinE1 and 100 to 1000 nM at CDK9/CyclinT1.
Regarding `N#Cc1cnc(Nc2ccc(S(N)(=O)=O)cc2)nc1N1CCC[C@H](O)C1` [Example 69], the IC50 is 100 to 1000 nM at CDK7/CyclinH/MAT1, 10 to 100 nM at CDK1/CyclinB, less than 10 nM at CDK2/CyclinE1 and 100 to 1000 nM at CDK9/CyclinT1.
Consider `N#Cc1cnc(Nc2ccc(S(N)(=O)=O)cc2)nc1N1CCC[C@@H](O)C1` [Example 70], for which the IC50 was not below 1000 nM on CDK7/CyclinH/MAT1, 100 to 1000 nM at CDK1/CyclinB, 10 to 100 nM on CDK2/CyclinE1 and 100 to 1000 nM at CDK9/CyclinT1.
For the molecule `C[C@@H]1C[C@H](O)CCN1c1nc(Nc2ccc(S(N)(=O)=O)cc2)ncc1C#N` [Example 75], the IC50 is 10 to 100 nM on CDK1/CyclinB, less than 10 nM on CDK2/CyclinE1 and 10 to 100 nM at CDK9/CyclinT1.
On to `C[C@@H]1C[C@@H](O)CCN1c1nc(Nc2ccc(S(N)(=O)=O)cc2)ncc1C#N` [Example 76], for which the IC50 on CDK1/CyclinB was 100 to 1000 nM; at CDK2/CyclinE1 it was 10 to 100 nM; on CDK9/CyclinT1 it was 100 to 1000 nM.
As for `C[C@@H]1CC[C@H](O)CN1c1nc(Nc2ccc(S(N)(=O)=O)cc2)ncc1C#N` [Example 77], the values for the IC50 at CDK1/CyclinB, on CDK2/CyclinE1 and at CDK9/CyclinT1 were 10 to 100 nM, less than 10 nM and 10 to 100 nM, respectively.
Consider `N#Cc1cnc(Nc2ccc(S(N)(=O)=O)cc2)nc1N1CCC[C@H](CO)C1` [Example 78], for which the IC50 on CDK1/CyclinB was 10 to 100 nM; at CDK2/CyclinE1, less than 10 nM; on CDK9/CyclinT1, 100 to 1000 nM.
For `N#Cc1cnc(Nc2ccc(S(N)(=O)=O)cc2)nc1N1CCC[C@@H](CO)C1` [Example 79], the figures for the IC50 at CDK1/CyclinB, at CDK2/CyclinE1 and at CDK9/CyclinT1 were 100 to 1000 nM, 10 to 100 nM and 100 to 1000 nM, respectively.
On to `CS(=O)(=O)N1CCC(Nc2ncc(C#N)c(N3CCCCC3)n2)CC1` [Example 89], for which the IC50 on CDK7/CyclinH/MAT1 was not below 1000 nM; on CDK1/CyclinB it was 100 to 1000 nM; on CDK2/CyclinE1, 10 to 100 nM; at CDK9/CyclinT1 it was not below 1000 nM.
